In assay [1] the test system is MUC1 in CHO1d1D/MUC1F-clone2 cells. Nature of the assay: MUC1 expression in cell lysates, immunoprecipitation and SDS-PAGE western blot (FIGS. 12-15). The note with it: 2 mM; for SDS-PAGE migration of MUC1 (O-glycosylation): cells grown in Gal and GalNAc. Format: cell-based, Chinese Hamster. As to the method: FIG. 12 is an SDS-PAGE Western analysis of GalNAcα-benzyl inhibition of MUC1 expression in CHO 1d1D cells stably transfected with a full coding MUC1 construct. […] Cells were further treated with 2 mM GalNAcα-benzyl (lanes 1, 4, 7, 10), 2 mM GlcNAcα-benzyl (lanes 2, 5, 8, 11) or no inhibitor (lanes 3, 6, 9, 12). Cells were washed and lysed at 24 or 48 hours and the lysates subjected to immunoprecipitation with monoclonal antibody HMFG2, which broadly recognize MUC1 glycoforms. Immunoprecipitates were analysed by SDS-PAGE and western blot using HMFG2 antibody to detect MUC1 expression. Lane M indicates molecular markers with assigned mw. Lane C includes a control MUC1 180-mer tandem repeat peptide which has been GalNAc-glycosylated with 3 moles GalNAc per repeat using GalNAc-T2. The sharp bands migrating at 100-200 kd are immunoglobulins indicated by IgG.
Cells were further treated with 2 mM GalNAcα-benzyl (lanes 1, 4, 7, 10), 2 mM GalNAcβ-benzyl (lanes 2, 5, 8, 11) or 2 mM GlcNAcα-benzyl (lanes 3, 6, 9, 12). Cells were washed and lysed at 36 hours and the lysates subjected to immunoprecipitation with monoclonal antibodies HMFG2 (lanes 1-6) or 5E5 (lanes 7-12). Immunoprecipitates were analysed by SDS-PAGE and western blot using HMFG2 antibody. Lanes M and C as described in legend to FIG. 7.
We next analysed the expression of MUC1 produced by CHO1d1D/MUC1F-clone2 cells by SDS-PAGE western analysis. […] Cells were further treated with 2 mM GalNAcα-benzyl, GlcNAcα-benzyl or no inhibitor. Cells were washed and lysed at 24 or 48 hours and the lysates subjected to immunoprecipitation with monoclonal antibody HMFG2, which broadly recognize MUC1 glycoforms. Immunoprecipitates were analysed by SDS-PAGE and western blot using HMFG2 antibody to detect MUC1 expression. […] In striking contrast, treatment with GalNAcα-benzyl had significant effect after 48 hours. […] This indicates some heterogeneity in glycosylation.
As shown in Examples 2 and 3, polypeptide GalNAc-transferases contain lectin domains with binding properties for GalNAc-peptides including GalNAc-MUC1 peptides. […] GalNAcβ-benzyl, the β-anomeric configuration of GalNAc-benzyl (there is a β linkage between the N-acetylgalactosamine and the benzyl ring), was custom synthesized by Alberta Research Council (Canada), and its structure was confirmed by mass spectrometry and ^1H-NMR. […] Cells were then treated with 2 mM GalNAcα-benzyl, GalNAcβ-benzyl, or GlcNAcα-benzyl as control (GlcNAcα-benzyl was shown in Example 4 to have no effect). Cells were washed and lysed as described above after 36 hours and the lysates subjected to immunoprecipitation with anti-MUC1 monoclonal antibodies HMFG2 or 5E5. […] FIG. 15 illustrates the same experiment as in FIG. 14 except that the detection antibody is 5E5 and only Tn and STn MUC1 glycoforms are visualised.

Assay [2] has as its system GalNAc-T2 and -T4 secreted soluble enzymes as well as lectin domains. Nature of the assay: Inhibition of GalNAc-transferase lectin binding to GalNAc-glycopeptides, statements on GalNAc-T2 and -T4 together. The settings on record: enzymes and isolated lectins. Further details: species or system human. As to the method: (§1) Direct binding ELISA assay was developed as follows: Polystyrene microtiter plates (Maxisorb, Nunc, Denmark) were coated with peptides or enzymatically glycosylated glycopeptides in PBS overnight at 4° C. Plates were washed and blocked with 0.1% Tween20 and 0.2% BSA in PBS for 1 h at room temperature, followed by incubation with biotinylated proteins in PBS with 0.05% Tween20 for 2 h at room temperature. After four washes with PBS, plates were incubated with 1:2,000 dilution streptavidin-HRP (Sigma) in PBS for 30 min at room temperature and washed four times with PBS. Development was performed with 0.5 mg/ml o-phenylenediamine and 0.02% H2O2 at room temperature for 15 min, and reaction stopped by adding 100 μl/well of 0.5 N H2SO4. Competitive inhibition assays were done at end-point titers of GalNAc-transferase proteins with one hour preincubations with inhibitor.
Lectins and antibodies to carbohydrates usually recognize the anomeric configuration of the sugar structures they bind.
(§2) Inhibition experiments were used to further define the binding specificity of GalNAc-T2 and -T4 secreted soluble enzymes as well as lectin domains compared to Helix Pomatia lectin (Table IV).

Assay [3] has as its system MUC1 secreted by wild type CHO/MUC1sol-cloneC4. Kind of assay: Secreted MUC1 in medium, western blot. The assay is classed as cell-based, Chinese Hamster. The note with it: 1-2 mM, compared to control treated or non-treated cells. From the text:
Because GalNAcα-benzyl exerts separate effects on O-glycan processing and mucin expression, the use of the novel selective inhibitor of mucin expression, GalNAcβ-benzyl, allow analysis of mucin expression and secretion in different cell line models. Examples of human cell lines (available from ATCC, USA) expressing and secreting mucins are without limitations LS174T, HT29, Colo205, CALU, MCF7, T47D, NCI-H292, and A549. Most human adenocarcinoma cell lines express and secret mucins and analysis with antibodies to detect protein expression or probes to detect mRNA can reveal the types and quantities of mucins. […] This and other cell lines can be used to treat with 2 mM GalNAcβ-benzyl. In this Example we used wild type CHO/MUC1sol-cloneC4 and western blot analysis of medium of cells treated with 1-2 mM GalNAcα-benzyl, GalNAcβ-benzyl, or the control GlcNAcα-benzyl. […] The inhibitory effect on mucin secretion can be quantified by a number of assays known to the skilled in the art including western blot, ELISA, gelfiltration, immunocapture, and other assays.

The target of assay [4] is human GalNAc-T4 (UDP-GalNAc:polypeptide N-acetylgalactosaminyltransferase T4) isolated truncated lectin domain (T4ld), HIS-tagged, amino acid residues 405-578 o (Homo sapiens, UniProt Q8N4A0). Kind of assay: biochemical. Format: binding. The note with it: isolated lectin domain.
Sequence of human GalNAc-T4 (UDP-GalNAc:polypeptide N-acetylgalactosaminyltransferase T4) isolated truncated lectin domain (T4ld), HIS-tagged, amino acid residues 405-578 o (Q8N4A0 405-578): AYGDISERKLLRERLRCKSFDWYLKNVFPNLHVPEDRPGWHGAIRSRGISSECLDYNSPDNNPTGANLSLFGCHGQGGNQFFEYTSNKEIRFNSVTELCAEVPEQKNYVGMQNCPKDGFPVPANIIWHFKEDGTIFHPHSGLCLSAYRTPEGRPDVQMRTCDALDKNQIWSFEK
Source text: In order to minimize the size and functional complexity of GalNAc-transferase lectins to be used as probes for binding studies, we used multiple sequence alignment analysis to predict and design suitable expression constructs for isolated lectin domains (FIG. 2). In the present invention a direct binding assay was developed using isolated lectin domains of GalNAc-T4 and -T2 with minimal size (FIG. 5). […] The lectin Helix Pomatia (HP) was used as a control plant lectin with known binding specificity for […].
as §1
In binding studies using lectins without biotinylation antibodies to the HIS-tag and the T7-tag, or in some experiments antibodies raised to GalNAc-T2 and -T4 enzymes were used to detect binding.
as §2
The ligand target used in this Example is a GalNAc-MUC1 glycopeptide produced enzymatically from synthetic peptides.

Structures are written as SMILES. “Also recorded” adds a separate entry of the source.

As to `CC(=O)N[C@H]1[C@@H](OCc2ccccc2)O[C@H](CO)[C@H](O)[C@@H]1O` [BzlαGalNAc, benzyl-N-acetyl-alpha-D-galactosaminide], the MUC1 expression result is “no significant effect” in assay [1] (24 hours, HMFG2 blot); “strong inhibition” in assay [1] (36 hours, 5E5 blot (FIG. 15)); “significant reduction” in assay [1] (36 hours, HMFG2 blot (FIG. 14)); “significant reduction” in assay [1] (48 hours, HMFG2 blot, cells grown in GalNAc or Gal and GalNAc). In addition, the “SDS-PAGE migration of MUC1 (O-glycosylation)” value in assay [1] (48 hours, listed as GalNAcα-benzyl) is recorded as “significant shift in migration; also recorded: marked shift in migration”. In addition, the “inhibition of GalNAc-T2 and -T4 lectin mediated binding, in words” value in assay [2] is “equal inhibition”. Also, in assay [3], the “secreted MUC1 in medium” value was “inhibition”.
`CC(=O)N[C@H]1[C@@H](OCc2ccccc2)O[C@H](CO)[C@H](O)[C@@H]1O` [GalNAcα-benzyl, benzyl-N-acetyl-alpha-D-galactosaminide]: the “inhibition of GalNAc-T4 lectin domain binding (in words)” value in assay [4] is listed as “inhibited binding to the same degree”.
Turning to `CC(=O)N[C@H]1[C@H](OCc2ccccc2)O[C@H](CO)[C@H](O)[C@@H]1O` [GalNAcβ-benzyl], the MUC1 expression entry is “strong inhibition; also recorded: same or better reduction” in assay [1] (36 hours, 5E5 blot (FIG. 15)) and “significant reduction; also recorded: same or better reduction” in assay [1] (36 hours, HMFG2 blot (FIG. 14)). Further, the “SDS-PAGE migration of MUC1 (O-glycosylation)” value in assay [1] (36 hours) is “does not interfere with O-glycosylation; also recorded: no change in the migration”. The “inhibition of GalNAc-T2 and -T4 lectin mediated binding, in words” value in assay [2] was “equal inhibition”. For the same molecule, in assay [4], the “inhibition of GalNAc-T4 lectin domain binding (in words)” value was “inhibited binding to the same degree”. For the same molecule, the “secreted MUC1 in medium” value in assay [3] is reported as “inhibition”.

(Values after patent US20080038809A1, “ISOLATED LECTIN POLYPEPTIDES CONSISTING OF TRUNCATED […] UDP-GalNAc:POLYPEPTIDE N- ACETYLGALACTOSAMINYLTRANSFERASES” (GLYCOZYM APS, priority 2002, published 2008).)
